According to US20180280377A1, “Imidazo[4,5-c]quinolin-2-one Compounds and Their Use in Treating Cancer” (ASTRAZENECA AB, priority 2015, published 2018):

Key:
ATR = biological target: T1, ATR (Homo sapiens, UniProt Q13535); assay: ATR cellular potency assay (pChk1 Ser345 in HT29 cells after 4NQO); type: cell-based; conditions: pChk1 (Ser 345); Table 2; read-out: Assay b) ATR Cell IC50
T1 construct: endogenous in cells; host or cells: HT29 cells (ECACC #85061109)
Description: (§1) The following assays were used to measure the effects of the compounds of the present invention: a) ATM cellular potency assay; b) PI3K cellular potency assay; c) mTOR cellular potency assay; d) ATR cellular potency assay. During the description of the assays, generally: • i. […] IC50 values were calculated using a smart fitting model in Genedata.
ATR is a PI3-kinase-related kinase which phosphorylates multiple substrates on serine or threonine residues in response to DNA damage during or replication blocks. Chk1, a downstream protein kinase of ATR, plays a key role in DNA damage checkpoint control. Activation of Chk1 involves phosphorylation of Ser317 and Ser345 (the latter regarded as the preferential target for phosphorylation/activation by ATR).
The following morning compound of Formula (I) in 100% DMSO were added to assay plates by acoustic dispensing. After 1 h incubation at 37° C. and 5% CO2, 40 nl of 3 mM 4NQO in 100% DMSO was added to all wells by acoustic dispensing, except minimum control wells which were left untreated with 4NQO to generate a null response control. Plates were returned to the incubator for a further 1 h. Then cells were fixed by adding 20 μl of 3.7% formaldehyde in PBS solution and incubating for 20 mins at r.t. Then […] of 0.1% Triton X100 in PBS was added and incubated for 10 minutes at r.t., to permeabalise cells. Then the plates were washed once with […] PBS, using a Biotek EL405 plate washer.
After 2 h incubation at r.t., the plates were washed three times with […] PBS, using a Biotek EL405 plate washer, and plates were then sealed with black plate seals until read. Plates were read using an ArrayScan VTI instrument, using an XF53 filter with 10× objective.

ATM = biological target: T2, ATM (Homo sapiens, UniProt Q13315); assay: ATM cellular potency assay (pATM Ser1981 in irradiated HT29 cells); type: cell-based; conditions: 1 h compound, X-ray irradiation, pATM (Ser1981); Table 2; read-out: Assay a) ATM Cell IC50
T2 construct: endogenous in cells; host or cells: HT29 cells (ECACC #85061109)
Description: as §1
Most ATM molecules in the cell are rapidly phosphorylated on this site after doses of radiation as low as 0.5 Gy, and binding of a phosphospecific antibody is detectable after the introduction of only a few DNA double-strand breaks in the cell.
The rationale of the pATM assay is to identify inhibitors of ATM in cells. HT29 cells are incubated with test compounds for 1 h prior to X-ray-irradiation. 1 h later the cells are fixed and stained for pATM (Ser1981). The fluorescence is read on the arrayscan imaging platform.
The following morning compounds of Formula (I) in 100% DMSO were added to assay plates by acoustic dispensing. After 1 h incubation at 37° C. and 5% CO2, plates (up to 6 at a time) were irradiated using the X-RAD 320 instrument (PXi) with equivalent to 600 cGy. Plates were returned to the incubator for a further 1 h. Then cells were fixed by adding 20 μl of 3.7% formaldehyde in PBS solution and incubating for 20 minutes at r.t. before being washed with 50μl/well PBS, using a Biotek EL405 plate washer. Then 20 μl of 0.1% Triton X100 in PBS was added and incubated for 20 minutes at r.t., to permeabalise cells. Then the plates were washed once with 50 μl/well PBS, using a Biotek EL405 plate washer.
After 1 h incubation at r.t., the plates were washed three times with 50 μl/well PBS, using a Biotek EL405 plate washer, and plates were sealed and kept in PBS at 4° C. until read. Plates were read using an ArrayScan VTI instrument, using an XF53 filter with 10× objective.

T1 sequence (Q13535 whole entry): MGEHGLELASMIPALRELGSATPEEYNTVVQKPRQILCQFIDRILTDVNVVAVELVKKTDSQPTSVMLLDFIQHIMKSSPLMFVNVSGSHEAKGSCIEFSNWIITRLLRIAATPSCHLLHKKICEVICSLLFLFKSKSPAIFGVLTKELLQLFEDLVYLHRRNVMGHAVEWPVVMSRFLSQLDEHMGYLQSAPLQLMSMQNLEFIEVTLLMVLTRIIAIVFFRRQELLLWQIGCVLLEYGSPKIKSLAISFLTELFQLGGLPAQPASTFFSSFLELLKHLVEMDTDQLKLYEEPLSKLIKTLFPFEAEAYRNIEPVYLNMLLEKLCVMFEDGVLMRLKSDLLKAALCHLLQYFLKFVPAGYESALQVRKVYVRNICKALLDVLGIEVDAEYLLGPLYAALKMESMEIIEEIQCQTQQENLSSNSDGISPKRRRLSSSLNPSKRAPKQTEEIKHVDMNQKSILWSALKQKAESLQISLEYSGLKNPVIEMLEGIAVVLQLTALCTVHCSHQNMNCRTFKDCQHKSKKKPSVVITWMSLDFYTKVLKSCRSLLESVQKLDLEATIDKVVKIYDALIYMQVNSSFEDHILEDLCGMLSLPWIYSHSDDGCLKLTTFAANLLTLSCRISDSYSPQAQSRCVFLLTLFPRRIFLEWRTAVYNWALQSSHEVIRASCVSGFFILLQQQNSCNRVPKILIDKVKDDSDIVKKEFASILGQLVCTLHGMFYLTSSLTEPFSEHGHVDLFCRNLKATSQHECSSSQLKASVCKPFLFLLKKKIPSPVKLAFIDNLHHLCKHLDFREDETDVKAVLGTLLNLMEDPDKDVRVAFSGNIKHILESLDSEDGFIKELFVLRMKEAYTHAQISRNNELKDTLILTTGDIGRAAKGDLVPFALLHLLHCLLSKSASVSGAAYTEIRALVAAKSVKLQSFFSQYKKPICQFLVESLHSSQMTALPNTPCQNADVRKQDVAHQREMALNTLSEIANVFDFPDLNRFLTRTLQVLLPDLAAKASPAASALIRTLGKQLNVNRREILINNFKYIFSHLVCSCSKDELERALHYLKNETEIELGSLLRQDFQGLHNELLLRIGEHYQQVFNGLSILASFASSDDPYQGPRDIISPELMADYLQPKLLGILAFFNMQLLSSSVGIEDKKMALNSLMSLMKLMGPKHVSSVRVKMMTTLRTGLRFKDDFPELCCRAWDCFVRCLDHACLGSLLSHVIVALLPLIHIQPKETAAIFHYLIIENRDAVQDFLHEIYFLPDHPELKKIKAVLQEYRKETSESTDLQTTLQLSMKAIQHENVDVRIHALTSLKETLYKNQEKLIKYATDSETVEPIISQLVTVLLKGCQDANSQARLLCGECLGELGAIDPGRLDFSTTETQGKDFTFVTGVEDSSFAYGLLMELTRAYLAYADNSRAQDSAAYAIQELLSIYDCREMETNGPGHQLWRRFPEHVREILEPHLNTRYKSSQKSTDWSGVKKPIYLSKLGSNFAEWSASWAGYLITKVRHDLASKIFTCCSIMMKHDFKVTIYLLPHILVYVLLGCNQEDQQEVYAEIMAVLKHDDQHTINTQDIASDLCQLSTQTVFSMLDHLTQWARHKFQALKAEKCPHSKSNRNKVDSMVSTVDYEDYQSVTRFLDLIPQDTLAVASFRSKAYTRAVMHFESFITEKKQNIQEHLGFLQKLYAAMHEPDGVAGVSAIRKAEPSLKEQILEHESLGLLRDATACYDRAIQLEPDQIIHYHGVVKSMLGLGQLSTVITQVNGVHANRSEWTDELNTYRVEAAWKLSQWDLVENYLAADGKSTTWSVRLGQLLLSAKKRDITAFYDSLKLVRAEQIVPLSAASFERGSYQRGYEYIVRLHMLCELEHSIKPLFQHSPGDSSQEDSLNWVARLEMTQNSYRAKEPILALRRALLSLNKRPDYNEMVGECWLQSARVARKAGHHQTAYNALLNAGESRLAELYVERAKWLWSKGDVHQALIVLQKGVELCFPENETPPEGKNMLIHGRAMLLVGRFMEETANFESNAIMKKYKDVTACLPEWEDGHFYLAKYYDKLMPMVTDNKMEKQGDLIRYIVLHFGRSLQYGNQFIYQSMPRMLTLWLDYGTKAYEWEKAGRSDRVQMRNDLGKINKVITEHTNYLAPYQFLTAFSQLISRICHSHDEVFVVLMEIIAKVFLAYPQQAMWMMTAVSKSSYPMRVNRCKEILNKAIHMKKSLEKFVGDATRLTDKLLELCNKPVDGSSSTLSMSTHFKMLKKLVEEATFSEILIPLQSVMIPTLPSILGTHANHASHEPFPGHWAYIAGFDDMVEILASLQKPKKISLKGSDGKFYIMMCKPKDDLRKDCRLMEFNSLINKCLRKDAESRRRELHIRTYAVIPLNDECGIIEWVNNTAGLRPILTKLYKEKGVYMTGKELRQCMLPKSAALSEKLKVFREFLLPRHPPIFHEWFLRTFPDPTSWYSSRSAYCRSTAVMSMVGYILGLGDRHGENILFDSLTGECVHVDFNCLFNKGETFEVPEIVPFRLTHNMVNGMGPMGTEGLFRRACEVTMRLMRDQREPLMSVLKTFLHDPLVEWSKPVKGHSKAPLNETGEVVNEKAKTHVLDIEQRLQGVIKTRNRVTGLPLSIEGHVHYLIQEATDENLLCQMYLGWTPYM
T1 sequence (Q8WXE1 whole entry partner): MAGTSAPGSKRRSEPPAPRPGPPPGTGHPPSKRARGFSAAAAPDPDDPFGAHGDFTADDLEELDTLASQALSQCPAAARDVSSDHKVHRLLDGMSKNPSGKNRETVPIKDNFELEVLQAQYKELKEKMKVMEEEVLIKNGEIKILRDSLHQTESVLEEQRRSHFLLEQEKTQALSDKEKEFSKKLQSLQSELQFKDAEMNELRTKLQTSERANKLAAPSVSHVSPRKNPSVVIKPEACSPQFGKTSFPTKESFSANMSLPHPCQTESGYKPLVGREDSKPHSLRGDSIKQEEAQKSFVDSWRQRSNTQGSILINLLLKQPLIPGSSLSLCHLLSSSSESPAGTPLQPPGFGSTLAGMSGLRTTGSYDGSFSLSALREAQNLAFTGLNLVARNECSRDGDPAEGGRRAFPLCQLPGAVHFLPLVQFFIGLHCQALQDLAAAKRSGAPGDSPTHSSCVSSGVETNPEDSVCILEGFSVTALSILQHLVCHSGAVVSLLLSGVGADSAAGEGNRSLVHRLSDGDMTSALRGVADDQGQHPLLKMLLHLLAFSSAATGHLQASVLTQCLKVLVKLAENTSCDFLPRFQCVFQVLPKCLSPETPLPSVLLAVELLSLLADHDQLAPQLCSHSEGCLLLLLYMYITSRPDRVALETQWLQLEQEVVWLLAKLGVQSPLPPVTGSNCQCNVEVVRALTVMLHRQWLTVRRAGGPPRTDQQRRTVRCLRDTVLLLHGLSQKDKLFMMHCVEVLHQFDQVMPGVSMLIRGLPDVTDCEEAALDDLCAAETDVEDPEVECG

| Compound | IC50 (ATR) [nM] | IC50 (ATM) [nM] |
| --- | --- | --- |
| 8-[6-[4-(dimethylamino)-1-piperidyl]-3-pyridyl-3-methyl-1-tetrahydropyran-4-yl-imidazo[4,5-c]quinolin-2-one [Example 39] | > 30000 | 2.69 |
| CO[C@H]1CC[C@H](n2c(=O)n(C)c3cnc4ccc(-c5ccc(N6CC(N(C)C)C6)nc5)cc4c32)C1 (single isomer, unassigned) [Example 22, 8-[6-[3-(dimethylamino)azetidin-1-yl]-3-pyridyl]-1-[trans-3-methoxycyclopentyl]-3-methyl-imidazo[4,5-c]quinolin-2-one] | 6710 | 13.4 |
| CO[C@H]1CC[C@H](n2c(=O)n(C)c3cnc4ccc(-c5ccc(N6CC(N(C)C)C6)nc5)cc4c32)C1 (single isomer, unassigned) [Example 23, 8-[6-[3-(dimethylamino)azetidin-1-yl]-3-pyridyl]-1-[trans-3-methoxycyclopentyl]-3-methyl-imidazo[4,5-c]quinolin-2-one] | > 24000 | 22.8 |
| CO[C@H]1CC[C@H](n2c(=O)n(C)c3cnc4cc(F)c(-c5ccc(N6CC(N(C)C)C6)nc5)cc4c32)C1 (single isomer, unassigned) [Example 29, 8-[6-[3-(dimethylamino)azetidin-1-yl]-3-pyridyl]-7-fluoro-1-[trans-3-methoxycyclopentyl]-3-methyl-imidazo[4,5-c]quinolin-2-one] | > 30000 | 9.68 |
| CO[C@H]1CC[C@H](n2c(=O)n(C)c3cnc4cc(F)c(-c5ccc(N6CC(N(C)C)C6)nc5)cc4c32)C1 (single isomer, unassigned) [Example 30, 8-[6-[3-(dimethylamino)azetidin-1-yl]-3-pyridyl]-7-fluoro-1-[trans-3-methoxycyclopently]-3-methyl-imidazo[4,5-c]quinolin-2-one] | > 30000 | 24.9 |
| CO[C@H]1CC[C@@H](n2c(=O)n(C)c3cnc4ccc(-c5ccc(N6CC[C@@H](N(C)C)C6)nc5)cc4c32)CC1 (single isomer, unassigned) [Example 44] | 1120 | 0.889 |
| CO[C@@H]1CCC[C@H](n2c(=O)n(C)c3cnc4ccc(-c5ccc(N6CCC(N(C)C)CC6)nc5)cc4c32)C1 (single isomer, unassigned) [Example 46, 8-[6-[4-(dimethylamino)-1-piperidyl]-3-pyridyl]-1-[cis-3-methoxycyclohexyl]-3-methyl-imidazo[4,5-c]quinolin-2-one] | > 10000 | 7.7 |
| CO[C@@H]1CCC[C@H](n2c(=O)n(C)c3cnc4ccc(-c5ccc(N6CC[C@@H](N(C)C)C6)nc5)cc4c32)C1 (single isomer, unassigned) [Example 47] | 1800 | 2.7 |
| CO[C@@H]1CCC[C@H](n2c(=O)n(C)c3cnc4ccc(-c5ccc(N6CC[C@@H](N(C)C)C6)nc5)cc4c32)C1 (single isomer, unassigned) [Example 48] | 201 | 2.34 |
| CO[C@@H]1CCC[C@H](n2c(=O)n(C)c3cnc4ccc(-c5ccc(N6CC(N(C)C)C6)nc5)cc4c32)C1 (single isomer, unassigned) [Example 49, 8-[6-[3-(dimethylamino)azetidin-1-yl]-3-pyridyl]-1-[cis-3-methoxycyclohexyl]-3-methyl-imidazo[4,5-c]quinoline-2-one] | 1910 | 15.3 |
| CO[C@@H]1CCC[C@H](n2c(=O)n(C)c3cnc4ccc(-c5ccc(N6CC(N(C)C)C6)nc5)cc4c32)C1 (single isomer, unassigned) [Example 50, 8-[6-[3-(dimethylamino)azetidin-1-yl]-3-pyridyl]-1-[cis-3-methoxycyclohexyl]-3-methyl-imidazo[4,5-c]quinolin-2-one] | 1970 | 16.7 |
| CO[C@H]1CCC[C@H](n2c(=O)n(C)c3cnc4ccc(-c5ccc(N6CC(N(C)C)C6)nc5)cc4c32)C1 (single isomer, unassigned) [Example 55, 8-[6-[3-(dimethylamino)azetidin-1-yl]-3-pyridyl]-1-[trans-3-methoxycyclohexyl]-3-methyl-imidazo[4,5-c]quinolin-2-one] | 804 | 3.38 |
| CO[C@H]1CCC[C@H](n2c(=O)n(C)c3cnc4ccc(-c5ccc(N6CC(N(C)C)C6)nc5)cc4c32)C1 (single isomer, unassigned) [Example 56, 8-[6-[3-(dimethylamino)azetidin-1-yl]-3-pyridyl]-1-[trans-3-methoxycyclohexyl]-3-methyl-imidazo[4,5-c]quinolin-2-one] | 1190 | 15.7 |
| CO[C@H]1C[C@@H](n2c(=O)n(C)c3cnc4cc(F)c(-c5ccc(N6CC[C@@H](N(C)C)C6)nc5)cc4c32)C1 [Example 6, 8-[6-[(3R)-3-(Dimethylamino)pyrrolidin-1-yl]-3-pyridyl]-7-fluoro-1-(cis-3-methoxycyclobutyl)-3-methyl-imidazo[4,5-c]quinolin-2-one] | > 30000 | 1.7 |
| CN(C)[C@@H]1CCN(c2ccc(-c3ccc4ncc5c(c4c3)n([C@H]3CCOC3)c(=O)n5C)cn2)C1 [Example 8] | 261 | 1.04 |
| CN(C)[C@@H]1CCN(c2ccc(-c3ccc4ncc5c(c4c3)n(C3CCOCC3)c(=O)n5C)cn2)C1 [Example 13] |  | > 23.9 |
| CN(C)[C@@H]1CCN(c2ccc(-c3cc4c(cc3F)ncc3c4n([C@@H]4CCCOC4)c(=O)n3C)cn2)C1 [Example 14] |  | 1.51 |

Now those with a lower IC50 (ATM), led by results:

| IC50 (ATR) [nM] | IC50 (ATM) [nM] | Compound |
| --- | --- | --- |
| > 30000 | 0.618 | CO[C@@H]1CCC[C@H](n2c(=O)n(C)c3cnc4ccc(-c5ccc(N6CCC(N(C)C)CC6)nc5)cc4c32)C1 (single isomer, unassigned) [Example 45] |
| 90.6 | 0.589 | CO[C@H]1CCC[C@H](n2c(=O)n(C)c3cnc4ccc(-c5ccc(N6CC[C@@H](N(C)C)C6)nc5)cc4c32)C1 (single isomer, unassigned) [Example 51] |
| 61.6 | 0.112 | CO[C@H]1CCC[C@H](n2c(=O)n(C)c3cnc4ccc(-c5ccc(N6CC[C@@H](N(C)C)C6)nc5)cc4c32)C1 (single isomer, unassigned) [Example 52] |
| > 21400 | 0.269 | CO[C@H]1CCC[C@H](n2c(=O)n(C)c3cnc4ccc(-c5ccc(N6CCC(N(C)C)CC6)nc5)cc4c32)C1 (single isomer, unassigned) [Example 53, 8-[6-[4-(dimethylamino)-1-piperidyl]-3-pyridyl]-1-[trans-3-methoxycyclohexyl]-3-methyl-imidazo[4,5-c]quinolin-2-one] |
| > 25600 | 0.061 | CO[C@H]1CCC[C@H](n2c(=O)n(C)c3cnc4ccc(-c5ccc(N6CCC(N(C)C)CC6)nc5)cc4c32)C1 (single isomer, unassigned) [Example 54, 8-[6-[4-(dimethylamino)-1-piperidyl]-3-pyridyl]-1-[trans-3-methoxycyclohexyl]-3-methyl-imidazo[4,5-c]quinolin-2-one] |
| 284 | 0.312 | CO[C@H]1CC[C@H](n2c(=O)n(C)c3cnc4ccc(-c5ccc(N6CC[C@@H](N(C)C)C6)nc5)cc4c32)C1 [Example 5, 8-[6-[(3R)-3-(Dimethylamino)pyrrolidin-1-yl]-3-pyridyl]-1-[(1S,3S)-3-methoxycyclopentyl]-3-methyl-imidazo[4,5-c]quinolin-2-one] |
| 2480 | 0.842 | CN(C)[C@@H]1CCN(c2ccc(-c3ccc4ncc5c(c4c3)n([C@H]3CCCOC3)c(=O)n5C)cn2)C1 [Example 9] |
| 3210 | 0.752 | CO[C@H]1C[C@@H](n2c(=O)n(C)c3cnc4ccc(-c5ccc(N6CC[C@@H](N(C)C)C6)nc5)cc4c32)C1 [Example 10] |
| 1080 | 0.77 | CO[C@H]1C[C@H](n2c(=O)n(C)c3cnc4ccc(-c5ccc(N6CC[C@@H](N(C)C)C6)nc5)cc4c32)C1 [Example 11] |
